# Where two headings read alike, the source gives them in different places. Marks after values point to notes of the source that are not given here.
# Legend:
# [1] = system: Salmonella typhimurium TA98; details: for Revertant/plate: TA98 without S9; for Specific mutagenic activity (revertant increase/dose unit): linear regression
# [2] = system: human leukocytes; assay type: cell-based; details: 1 hour treatment, measured immediately after exposure; NFX 0–348 μM, BNZ 0–348 μM, MTZ 0–585 μM
# [3] = system: immortalized lymphocytes (Epstein-Barr virus lymphoblastoid cell line); assay: Long-term exposure cytotoxicity assay (MTS); assay type: cell-based, human; details: 48 hours treatment
# [4] = system: human lymphocytes; assay: Micronucleus (MN) assay, cytokinesis block; assay type: cell-based
# Protocol: The MN assay was performed using blood samples from healthy, nonsmoking males, as provided by the AVIS (Italian Association of Voluntary Blood Donors). […] Cytochalasin-B was added 44 hours after the start of incubation at a final concentration of 6 μg/mL; at 48 hours, the lymphocytes were treated with the different drugs. […] Each treatment was tested with cells from two donors, performed in duplicate separate cultures (i.e., four cultures were set up for each treatment). After incubation, the lymphocytes were collected and resuspended in a mild hypotonic solution (0.075 M KCl) and then added with an ice-cold 5 : 3 acetic acid : methanol solution. After centrifugation (500 g, 10 min), the pellets were resuspended in cold (-20°C) methanol and maintained at -20°C (at least 24 hours). […] Scoring was done using an […] (Munich, Germany) light microscope at 1000X magnification. […] NDI data were analyzed by Student's t-test.
# [5] = system: human leukocytes; assay: Modified comet assay with ENDOIII for oxidised bases; details: 37°C, 1 hour
# Protocol: Oxidatively generated damage can be evaluated easily by comparing the DNA migration in enzyme-or buffer-treated samples. The comet assay, with the modification of an extra step after lysis in which DNA is digested with the repair enzyme, was performed according to Collins et al. […] ENDOIII was isolated from bacteria containing over-producing plasmids (Collin's Laboratory, Rowett Research Institute, Bucksburn, Aberdeen, UK). The enzyme-treated gels reveal alkali labile sites and strand breaks (ALS/SB) and oxidised bases (ALS/SB + OX). Assuming a linear dose response, subtraction of (ALS/SB) from (ALS/SB + OX) gives a measure of oxidised bases. The SPSS 11 statistical package was used to analyse statistical differences between samples. Statistical differences between controls and treated samples were first determined with the nonparametric Wilcoxon rank-sum test for each experiment. The mean values from the repeated experiments were used in a one-way analysis of variance. Analysis of variance was followed by single or multiple pairwise comparisons. Data were tested for normality and homogeneity of variance. When these criteria were met, the data were compared using Dunnett's version of the t-test.
# [6] = system: Salmonella typhimurium TA100; details: for Specific mutagenic activity (revertant increase/dose unit): linear regression; for Revertant/plate: TA100 without S9
# [7] = therapeutically treated patients; no reference given; cited from earlier work
molecule,measurement,setting,value
"O=[N+]([O-])c1ccc2c(c1)Cc1ccccc1-2 [2-NF, 2-nitrofluorene]",Revertant/plate,[1]; 15 μg/plate,169 ± 7
"O=C(Cn1ccnc1[N+](=O)[O-])NCc1ccccc1 [BNZ, N-benzyl-2-(2-nitroimidazol-1-yl)acetamide]",Cellular survival rate,[2],did not appear to be affected
same,Cytotoxic effect on cultured lymphocytes,[3],did not show any significant effects
same,Effect on MN frequency,[4]; 24-hours treated lymphocytes,did not alter MN frequency
same,MN,"[4]; 24h, 3.8 µM",4.0± 0.5 x10-3 BN
same,NDI,"[4]; 24h, 3.8 µM",1.97± 0.11
same,NDI (%),"[4]; 24h, 3.8 µM",94± 5%
same,MN,"[4]; 24h, 7.7 µM",3.5± 1.0 x10-3 BN
same,NDI,"[4]; 24h, 7.7 µM",1.97± 0.07
same,NDI (%),"[4]; 24h, 7.7 µM",94± 3%
same,MN,"[4]; 24h, 15.4 µM",2.5± 0.5 x10-3 BN
same,NDI,"[4]; 24h, 15.4 µM",2.00± 0.06
same,NDI (%),"[4]; 24h, 15.4 µM",95± 3%
same,MN,"[4]; 24h, 30.7 µM",4.5± 1.0 x10-3 BN
same,NDI (%),"[4]; 24h, 30.7 µM",97± 2%
same,MN,"[4]; 24h, 61.5 µM",3.5± 0.5 x10-3 BN
same,NDI,"[4]; 24h, 61.5 µM",1.99± 0.07
same,NDI (%),"[4]; 24h, 61.5 µM",95± 3%
same,MN,"[4]; 24h, 96.1 µM",3.0± 0.5 x10-3 BN
same,NDI,"[4]; 24h, 96.1 µM",2.01± 0.03
same,NDI (%),"[4]; 24h, 96.1 µM",96± 1%
same,MN,"[4]; 24h, 192.1 µM",5.0± 1.0 x10-3 BN
same,NDI,"[4]; 24h, 192.1 µM",2.07± 0.07
same,NDI (%),"[4]; 24h, 192.1 µM",99± 3%
same,MN,"[4]; 24h, 384.2 µM",3.5± 0.5 x10-3 BN
same,NDI (%),"[4]; 24h, 384.2 µM",97± 5%
same,Effect on MN frequency,[4]; 72 hours treated lymphocytes,increase of MN frequency
same,Effect on nuclear division (NDI),[4]; 72 hours treated lymphocytes,without some decrease of nuclear division
same,MN,"[4]; 72 hours, 3.8 μM",3.5 ± 1.0 ×10^−3 BN
same,NDI,"[4]; 72 hours, 3.8 μM",1.93 ± 0.11
same,NDI (%),"[4]; 72 hours, 3.8 μM",100 ± 6%
same,MN,"[4]; 72 hours, 7.7 μM",4.0 ± 1.0 ×10^−3 BN
same,NDI,"[4]; 72 hours, 7.7 μM",2.00 ± 0.07
same,NDI (%),"[4]; 72 hours, 7.7 μM",104 ± 4%
same,MN,"[4]; 72 hours, 15.4 μM",4.0 ± 1.5 ×10^−3 BN
same,NDI,"[4]; 72 hours, 15.4 μM",1.98 ± 0.06
same,NDI (%),"[4]; 72 hours, 15.4 μM",102 ± 3%
same,MN,"[4]; 72 hours, 30.7 μM",3.5 ± 1.0 ×10^−3 BN
same,NDI,"[4]; 72 hours, 30.7 μM",1.99 ± 0.05
same,NDI (%),"[4]; 72 hours, 30.7 μM",103 ± 3%
same,MN,"[4]; 72 hours, 61.5 μM",3.0 ± 0.5 ×10^−3 BN
same,NDI,"[4]; 72 hours, 61.5 μM",2.06 ± 0.07
same,NDI (%),"[4]; 72 hours, 61.5 μM",107 ± 4%
same,MN,"[4]; 72 hours, 96.1 μM",9.0 ± 0.5 ×10^−3 BN
same,NDI,"[4]; 72 hours, 96.1 μM",2.05 ± 0.03
same,NDI (%),"[4]; 72 hours, 96.1 μM",106 ± 2%
same,MN,"[4]; 72 hours, 192.1 μM",13.0 ± 1.0^b ×10^−3 BN
same,NDI,"[4]; 72 hours, 192.1 μM",2.00 ± 0.07
same,NDI (%),"[4]; 72 hours, 192.1 μM",104 ± 4%
same,MN,"[4]; 72 hours, 384.2 μM",16.5 ± 0.5^b ×10^−3 BN
same,NDI,"[4]; 72 hours, 384.2 μM",1.93 ± 0.10
same,NDI (%),"[4]; 72 hours, 384.2 μM",100 ± 6%
same,"Specific genotoxic activity, DNA migration/dose unit (II: comet assay modified with ENDOIII, DNA oxidative damage)",[5],0.9077 (r ^2 = 0.8351) μm/μM
same,Revertants,"[1]; TA98 +S9, 5 µg/plate",20± 2
same,Revertants,"[1]; TA98 +S9, 10 µg/plate",18± 2
same,Revertants,"[1]; TA98 +S9, 20 µg/plate",22± 8
same,Revertants,"[1]; TA98 +S9, 40 µg/plate",24± 5
same,Revertants,"[1]; TA98 +S9, 80 µg/plate",23± 4
same,Revertants,"[1]; TA98 +S9, 125 µg/plate",34± 2
same,Revertants,"[1]; TA98 +S9, 250 µg/plate",43± 9
same,Revertants,"[1]; TA98 +S9, 500 µg/plate",44± 6
same,Revertants,"[1]; TA98 -S9, 5 µg/plate",10± 2
same,Revertants,"[1]; TA98 -S9, 10 µg/plate",16± 4
same,Revertants,"[1]; TA98 -S9, 20 µg/plate",14± 6
same,Revertants,"[1]; TA98 -S9, 40 µg/plate",15± 1
same,Revertants,"[1]; TA98 -S9, 80 µg/plate",14± 2
same,Revertants,"[1]; TA98 -S9, 125 µg/plate",26± 3
same,Revertants,"[1]; TA98 -S9, 250 µg/plate",39± 3
same,Revertants,"[1]; TA98 -S9, 500 µg/plate",45± 5
same,Specific mutagenic activity (revertant increase/dose unit),[1]; TA98 with S9 mix,0.10 (0.93)
same,Specific mutagenic activity (revertant increase/dose unit),[1]; TA98 without S9 mix,0.07 (0.88)
same,Lowest effective dose / concentration significantly increasing the revertant number,[6]; TA100,5 µg/mL
same,Revertants,"[6]; TA100 +S9, 5 µg/plate",406± 13
same,Revertants,"[6]; TA100 +S9, 10 µg/plate",811± 55
same,Revertants,"[6]; TA100 +S9, 20 µg/plate",1445± 85
same,Revertants,"[6]; TA100 +S9, 40 µg/plate",3117± 169
same,Revertants,"[6]; TA100 +S9, 80 µg/plate",4901± 166
same,Revertants,"[6]; TA100 -S9, 5 µg/plate",498± 25
same,Revertants,"[6]; TA100 -S9, 10 µg/plate",943± 27
same,Revertants,"[6]; TA100 -S9, 20 µg/plate",1801± 67
same,Revertants,"[6]; TA100 -S9, 40 µg/plate",3344± 104
same,Revertants,"[6]; TA100 -S9, 80 µg/plate",5287± 81
same,Specific mutagenic activity (revertant increase/dose unit),[6]; TA100 with S9 mix,60.92 (0.98)
same,Specific mutagenic activity (revertant increase/dose unit),[6]; TA100 without S9 mix,64.96 (0.98)
"NC(=O)C(=Cc1ccc([N+](=O)[O-])o1)c1ccco1 [FYFA, 2-(2-furyl)-3-(5-nitro-2-furyl)acrylamide]",Revertant/plate,[1]; 20 ng/plate,189 ± 16
same,Revertant/plate,[6]; 20 ng/plate,1133 ± 70
"CCN(CC)CCNc1ccc(CO)c2sc3ccccc3c(=O)c12 [HYC, hycantone]",Revertant/plate,[1]; positive control 75 μg/plate,870 ± 90
same,Revertant/plate,[6]; positive control 75 μg/plate,968 ± 103
"Cc1ncc([N+](=O)[O-])n1CCO [MTZ, 2-(2-methyl-5-nitro-1H-imidazol-1-yl)ethanol]",Cytotoxic effect on cultured lymphocytes,[3],did not show any significant effects
same,NDI,"[4]; 24h, 5.9 µM",1.97± 0.07
same,NDI (%),"[4]; 24h, 5.9 µM",100± 4%
same,NDI,"[4]; 24h, 11.7 µM",1.97± 0.05
same,NDI (%),"[4]; 24h, 11.7 µM",100± 3%
same,NDI,"[4]; 24h, 46.8 µM",2.01± 0.10
same,NDI (%),"[4]; 24h, 46.8 µM",102± 5%
same,NDI,"[4]; 24h, 93.6 µM",1.99± 0.04
same,NDI (%),"[4]; 24h, 93.6 µM",101± 2%
same,NDI,"[4]; 24h, 146.2 µM",1.97± 0.10
same,NDI (%),"[4]; 24h, 146.2 µM",100± 5%
same,NDI,"[4]; 24h, 292.4 µM",2.01± 0.03
same,NDI (%),"[4]; 24h, 292.4 µM",102± 2%
same,NDI,"[4]; 24h, 584.8 µM",1.94± 0.06
same,NDI (%),"[4]; 24h, 584.8 µM",98± 3%
same,NDI,"[4]; 72h, 2.9 µM",1.74± 0.11
same,NDI (%),"[4]; 72h, 2.9 µM",100± 6%
same,NDI,"[4]; 72h, 5.9 µM",1.75± 0.17
same,NDI (%),"[4]; 72h, 5.9 µM",101± 10%
same,NDI,"[4]; 72h, 11.7 µM",1.74± 0.10
same,NDI (%),"[4]; 72h, 11.7 µM",100± 6%
same,NDI,"[4]; 72h, 46.8 µM",1.81± 0.09
same,NDI,"[4]; 72h, 93.6 µM",1.73± 0.08
same,NDI (%),"[4]; 72h, 93.6 µM",100± 5%
same,NDI,"[4]; 72h, 146.2 µM",1.84± 0.11
same,NDI (%),"[4]; 72h, 146.2 µM",106±6%
same,NDI,"[4]; 72h, 292.4 µM",1.76± 0.07
same,NDI (%),"[4]; 72h, 292.4 µM",102± 4%
same,NDI,"[4]; 72h, 584.8 µM",1.74± 0.12
same,NDI (%),"[4]; 72h, 584.8 µM",100± 7%
same,Effect on nuclear division (NDI),[4]; 72 hours treated lymphocytes,did not induce any alteration
same,Plasmatic concentration in treated patients,[7],8 to 13 µg/mL
CCOS(C)(=O)=O [ethyl methane sulfonate],MN frequency in binucleated cells,"[4]; male, human, 24 h, 1 μM",15.0 ± 2.8 ×10^−3 BN
same,MN frequency in binucleated cells,"[4]; male, human, 24 h, 120 µg/ml",15.0± 2.8 x10-3 BN
bleomycin,MN frequency in binucleated cells,"[4]; positive control, 6µg/ml",26.0± 4.0 x10-3 BN

# From paper PMC2963127, “Genotoxicity Revaluation of Three Commercial Nitroheterocyclic Drugs: Nifurtimox, Benznidazole, and Metronidazole” (Journal of Parasitology Research, 2009)
